From ChEMBL document CHEMBL5360590, “Phyllospongianes A-E, Dinorscalarane Sesterterpenes from the Marine Sponge Phyllospongia foliascens” (J Nat Prod, 2023)
Converted amounts (≈) assume the structure as drawn.

Columns and labels:
Vibrio parahaemolyticus = experiment: Antibacterial activity against Vibrio parahaemolyticus assessed as bacterial growth inhibition; type: functional
MDA-MB-231 = experiment: Cytotoxicity against human MDA-MB-231 cells assessed as reduction in cell viability by CCK-8 assay; type: functional, cell-based
Vibrio vulnificus = experiment: Antibacterial activity against Vibrio vulnificus assessed as bacterial growth inhibition; type: functional
NCI-H460 = experiment: Cytotoxicity against human NCI-H460 cells assessed as reduction in cell viability by CCK-8 assay; type: functional, cell-based
[1] = Cytotoxicity against human Enzalutamide-resistant LNCaP C4-2 cells assessed as reduction in cell viability by CCK-8 assay; type: functional, cell-based
Escherichia coli = experiment: Antibacterial activity against Escherichia coli assessed as bacterial growth inhibition; type: functional
HepG2 = experiment: Cytotoxicity against human HepG2 cells assessed as reduction in cell viability by CCK-8 assay; type: functional, cell-based
Enterococcus faecalis = experiment: Antibacterial activity against Enterococcus faecalis assessed as bacterial growth inhibition; type: functional
HT-29 = experiment: Cytotoxicity against human HT-29 cells assessed as reduction in cell viability by CCK-8 assay; type: functional, cell-based
MCF7 = experiment: Cytotoxicity against human MCF7 cells assessed as reduction in cell viability by CCK-8 assay; type: functional, cell-based
Pseudomonas aeruginosa = experiment: Antibacterial activity against Pseudomonas aeruginosa assessed as bacterial growth inhibition; type: functional
Bacillus subtilis = experiment: Antibacterial activity against Bacillus subtilis assessed as bacterial growth inhibition; type: functional

In the case of `CCCCC(=O)O[C@H]1C[C@@H]2[C@@]3(C)CCC[C@](C)(CC)[C@@H]3CC[C@@]2(C)[C@@H]2CC=C(C(=O)O)[C@@]12C`, the MIC (Vibrio parahaemolyticus) is reported as 16 µg/mL (≈ 34.9 µM), the IC50 (MDA-MB-231) is reported as > 50 µM and the MIC (Vibrio vulnificus) is reported as 64 µg/mL (≈ 140 µM). For the same compound, the IC50 (NCI-H460) was 13 µM, the IC50 [1] was 11.2 µM and the MIC (Escherichia coli) was 32 µg/mL (≈ 69.8 µM). The IC50 (HepG2) was > 50 µM, the MIC (Enterococcus faecalis) was 16 µg/mL (≈ 34.9 µM) and the IC50 (HT-29) was 18 µM. It also gave an IC50 (MCF7) of 15.3 µM, an MIC (Pseudomonas aeruginosa) of 32 µg/mL (≈ 69.8 µM) and an MIC (Bacillus subtilis) of 16 µg/mL (≈ 34.9 µM).
For `CC[C@@]1(C)CCC[C@]2(C)[C@H]3C[C@H](OC(=O)CCC(C)C)[C@]4(C)C(C(=O)O)=CC[C@H]4[C@]3(C)CC[C@@H]12`, the MIC (Vibrio parahaemolyticus) was 2 µg/mL (≈ 4.23 µM), the IC50 (MDA-MB-231) was > 50 µM and the MIC (Vibrio vulnificus) was 4 µg/mL (≈ 8.46 µM). For the same compound, the IC50 (NCI-H460) was 11 µM, the IC50 [1] was 3.7 µM and the MIC (Escherichia coli) was 8 µg/mL (≈ 16.9 µM). It also gave an IC50 (HepG2) of 20.1 µM, an MIC (Enterococcus faecalis) of 4 µg/mL (≈ 8.46 µM) and an IC50 (HT-29) of 13.2 µM. The IC50 (MCF7) was 12.3 µM, the MIC (Pseudomonas aeruginosa) was 4 µg/mL (≈ 8.46 µM) and the MIC (Bacillus subtilis) was 2 µg/mL (≈ 4.23 µM).
For `CCCCC(=O)O[C@H]1C[C@@H]2[C@@]3(C)CCC[C@](C)(CC)[C@@H]3CC[C@@]2(C)[C@@H]2CC=C(C=O)[C@@]12C`, the MIC (Vibrio parahaemolyticus) was 4 µg/mL (≈ 9.04 µM), the IC50 (MDA-MB-231) was > 50 µM and the MIC (Vibrio vulnificus) was 4 µg/mL (≈ 9.04 µM). For the same compound, the IC50 (NCI-H460) was 10.2 µM, the IC50 [1] was 5.7 µM and the MIC (Escherichia coli) was 8 µg/mL (≈ 18.1 µM). It also gave an IC50 (HepG2) of 32.1 µM, an MIC (Enterococcus faecalis) of 4 µg/mL (≈ 9.04 µM) and an IC50 (HT-29) of 8.7 µM. The IC50 (MCF7) was 7.3 µM, the MIC (Pseudomonas aeruginosa) was 4 µg/mL (≈ 9.04 µM) and the MIC (Bacillus subtilis) was 2 µg/mL (≈ 4.52 µM).
`Cn1nnc2c(C(N)=O)ncn2c1=O` [TEMOZOLOMIDE] showed an IC50 (MDA-MB-231) of 14.4 µM, an IC50 [1] of 18.2 µM and an IC50 (HepG2) of 5.9 µM.
Work on `C[C@H]1COc2c(N3CCN(C)CC3)c(F)cc3c(=O)c(C(=O)O)cn1c23` [LEVOFLOXACIN ANHYDROUS] yielded an MIC (Vibrio parahaemolyticus) of 0.5 µg/mL (≈ 1.38 µM), an MIC (Vibrio vulnificus) of 0.5 µg/mL (≈ 1.38 µM) and an MIC (Escherichia coli) of 0.25 µg/mL (≈ 0.692 µM). It also gave an MIC (Enterococcus faecalis) of 0.25 µg/mL (≈ 0.692 µM), an MIC (Pseudomonas aeruginosa) of 0.25 µg/mL (≈ 0.692 µM) and an MIC (Bacillus subtilis) of 0.25 µg/mL (≈ 0.692 µM).
In the case of `CC[C@@]1(C)CCC[C@]2(C)[C@H]3C[C@H](OC(=O)C[C@H](O)C(C)C)[C@]4(C)C(C=O)=CC[C@H]4[C@]3(C)CC[C@@H]12`, the MIC (Vibrio parahaemolyticus) is reported as > 64 µg/mL, the IC50 (MDA-MB-231) is reported as 13.2 µM and the MIC (Vibrio vulnificus) is reported as > 64 µg/mL. For the same compound, the IC50 (NCI-H460) was 2 µM, the IC50 [1] was 0.7 µM and the MIC (Escherichia coli) was > 64 µg/mL. The IC50 (HepG2) was 9.6 µM, the MIC (Enterococcus faecalis) was > 64 µg/mL and the IC50 (HT-29) was 1.2 µM. For the same compound, the IC50 (MCF7) was 1.1 µM, the MIC (Pseudomonas aeruginosa) was > 64 µg/mL and the MIC (Bacillus subtilis) was 8 µg/mL (≈ 16.9 µM).
With `CC[C@@]1(C)CCC[C@]2(C)[C@H]3C[C@H](OC(=O)CCC(C)C)[C@]4(C)C(C=O)=CC[C@H]4[C@]3(C)CC[C@@H]12` the MIC (Vibrio parahaemolyticus) was 2 µg/mL (≈ 4.38 µM), the IC50 (MDA-MB-231) was 32.3 µM and the MIC (Vibrio vulnificus) was 2 µg/mL (≈ 4.38 µM). For the same compound, the IC50 (NCI-H460) was 7.2 µM, the IC50 [1] was 1.7 µM and the MIC (Escherichia coli) was 8 µg/mL (≈ 17.5 µM). For the same compound, the IC50 (HepG2) was 19.3 µM, the MIC (Enterococcus faecalis) was 4 µg/mL (≈ 8.76 µM) and the IC50 (HT-29) was 4.7 µM. For the same compound, the IC50 (MCF7) was 3.5 µM, the MIC (Pseudomonas aeruginosa) was 4 µg/mL (≈ 8.76 µM) and the MIC (Bacillus subtilis) was 1 µg/mL (≈ 2.19 µM).
